The source of these data is patent EP4790066A1, “GLP-1R/GIPR/GCGR TRIPLE AGONIST ANALOGUE AND USE THEREOF” (Shenzhen Bay Laboratory, priority 2023, dated 2025).

*1 amine or outer side, *2 acyl side, *3 side chain or, on linkers, in order; H or OH if unused. Where a SMILES comes first, the peptide text is derived from it. Bridges are numbered along the chain shown (N, C = ends). [ ]: non-standard residue; d: D form. X1 = O=C(O)CCCCCCCCCCCCCCCCCCC(=O)N[C@@H](CCCCNC(=O)COCCOCCNC(=O)COCCOCCNC(=O)CCC(=O)N(CCNC(=O)C[*:1])CCNC(=O)C[*:2])C(=O)O; Phe(2-F) = N[C@@H](Cc1ccccc1F)C(=O)O; αMeL = CC(C)C[C@](C)(N)C(=O)O; Iva = CC[C@](C)(N)C(=O)O; Dab = NCC[C@H](N)C(=O)O; Aib = CC(C)(N)C(=O)O

Common to all, as to format: cell-based
One assay concerns the target T1, GLP-1R (Homo sapiens, UniProt P43220).
T1 construct: expressed in transfected cells
The experiment in a line: CreLuc method (CRE-luciferase reporter), HEK293/pGM-CREB-L-Luc/GLP-1R pool. The settings on record: 6 h incubation, read-out: EC50 (pM) for each receptor GLP-1R. How it is done: (§1) 1. Insulinotropic analogues can bind to the target receptor on the cell membrane, activate the cAMP response element (CRE), and initiate the expression of downstream luciferase. The expression level is positively correlated with the biological activity of the analogue being tested. After activation, luciferase substrate is added for chemiluminescence detection, and the luminescence intensity is determined to characterize the biological activity of the test compounds. Therefore, the target peptide derivatives (or polypeptide derivatives, i.e., TG1-TG94) prepared in Example 1 and Example 2 can be tested by the CreLuc method. The specific steps are as follows: The stably transfected cell lines HEK293/pGM-CREB-L-Luc/GLP-1R pool, HEK293/pGM-CREB-L-Luc/GIPR pool, and 293HEK/pGM-CREB-L-Luc/GCGR pool were constructed. […] The corresponding test cells were digested (1 min), dispersed by pipetting, and centrifuged (1000 rpm, 5 min). The culture medium was discarded, and the cells were resuspended in freestyle medium, centrifuged again, collected, and counted. The cells were then diluted to a cell density of 5 x 10^5 cells/mL and then added to the detection wells of a 384-well plate (40 µL/20,000 cells/well). Echo was used to add the corresponding analyte dilution series. The cell plate was incubated at 37°C and 5% CO2 for 6 h, then ONE-GLO (20 µL/well) was added for detection. It was kept in the dark for 3 min, then a chemiluminescent microplate reader was used for determination. The plate was read within 30 min, and the determination results were recorded. […] Table 3: EC50 values for target peptide derivatives

In a further assay the target is T2, GIPR (Homo sapiens, UniProt P48546).
T2 construct: expressed in transfected cells
T2 sequence (P48546 22-466): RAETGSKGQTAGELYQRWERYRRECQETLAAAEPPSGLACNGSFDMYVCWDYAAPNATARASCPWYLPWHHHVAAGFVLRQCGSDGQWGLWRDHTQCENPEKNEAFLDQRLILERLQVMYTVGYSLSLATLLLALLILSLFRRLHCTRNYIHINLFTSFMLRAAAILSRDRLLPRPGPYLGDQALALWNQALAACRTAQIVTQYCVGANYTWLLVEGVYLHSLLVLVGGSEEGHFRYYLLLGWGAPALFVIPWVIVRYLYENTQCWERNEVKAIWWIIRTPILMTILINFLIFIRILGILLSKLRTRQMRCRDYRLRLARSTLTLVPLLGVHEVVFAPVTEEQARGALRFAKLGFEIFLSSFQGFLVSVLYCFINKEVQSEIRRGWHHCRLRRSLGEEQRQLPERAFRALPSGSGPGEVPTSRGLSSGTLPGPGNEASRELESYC
Kind of assay: CreLuc method (CRE-luciferase reporter), HEK293/pGM-CREB-L-Luc/GIPR pool. To be noted: 6 h incubation, read-out: EC50 (pM) for each receptor GIPR. How it is done:
as §1

Another assay has as its target T3, GCGR (Homo sapiens, UniProt P47871).
T3 construct: expressed in transfected cells
The experiment in a line: CreLuc method (CRE-luciferase reporter), 293HEK/pGM-CREB-L-Luc/GCGR pool. To be noted: 6 h incubation, read-out: EC50 (pM) for each receptor GCGR. How it is done:
as §1
(In a reporter assay the amount or activity of a reporter protein is the signal.)

T3 sequence (P47871 26-477, species assumed): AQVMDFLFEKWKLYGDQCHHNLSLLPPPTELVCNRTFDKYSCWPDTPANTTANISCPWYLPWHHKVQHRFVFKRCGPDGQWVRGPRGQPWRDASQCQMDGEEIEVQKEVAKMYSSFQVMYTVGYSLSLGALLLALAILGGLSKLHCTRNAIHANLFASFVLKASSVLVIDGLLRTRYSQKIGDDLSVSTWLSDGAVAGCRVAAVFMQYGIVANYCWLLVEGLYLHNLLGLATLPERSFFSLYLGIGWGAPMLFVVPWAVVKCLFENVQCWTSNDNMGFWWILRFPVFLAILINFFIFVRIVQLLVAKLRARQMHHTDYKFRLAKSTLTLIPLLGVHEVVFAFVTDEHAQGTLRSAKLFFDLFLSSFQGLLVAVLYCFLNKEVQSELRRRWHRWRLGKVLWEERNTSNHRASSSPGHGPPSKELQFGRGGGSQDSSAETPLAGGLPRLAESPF
T1 sequence (P43220 24-463, species assumed): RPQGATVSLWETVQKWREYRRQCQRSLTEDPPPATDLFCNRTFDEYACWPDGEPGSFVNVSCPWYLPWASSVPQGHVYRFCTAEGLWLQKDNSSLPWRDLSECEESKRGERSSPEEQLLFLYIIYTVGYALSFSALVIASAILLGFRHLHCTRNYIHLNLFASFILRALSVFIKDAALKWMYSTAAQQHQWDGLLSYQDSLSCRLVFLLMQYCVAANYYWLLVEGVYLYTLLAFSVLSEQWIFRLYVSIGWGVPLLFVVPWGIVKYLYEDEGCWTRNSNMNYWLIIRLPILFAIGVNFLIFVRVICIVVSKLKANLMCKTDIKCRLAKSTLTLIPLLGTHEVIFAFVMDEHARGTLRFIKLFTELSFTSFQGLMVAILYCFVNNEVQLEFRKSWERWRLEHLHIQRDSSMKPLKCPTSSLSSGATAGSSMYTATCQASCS

Turning to `CC[C@H](C)[C@@H]1NC(=O)[C@H](Cc2ccccc2)NC(=O)[C@@H](NC(=O)C(C)(C)NC(=O)[C@H](CCC(N)=O)NC(=O)[C@H](C)NC(=O)[C@H](CCCCNC(C)=O)NC(=O)[C@H](CCCCN)NC(=O)[C@H](CC(=O)O)NC(=O)[C@H](CC(C)C)NC(=O)[C@](C)(CC(C)C)NC(=O)[C@@H](NC(=O)[C@H](CO)NC(=O)[C@H](Cc2ccc(O)cc2)NC(=O)[C@H](CC(=O)O)NC(=O)[C@H](CO)NC(=O)[C@@H](NC(=O)[C@H](Cc2ccccc2)NC(=O)[C@@H](NC(=O)CNC(=O)[C@H](CCC(N)=O)NC(=O)[C@@H](CO)NC(=O)[C@@H](N)Cc2ccc(O)cc2)[C@@H](C)O)[C@@H](C)O)[C@@H](C)CC)CSCC(=O)NCCN(C(=O)CCC(=O)NCCOCCOCC(=O)NCCOCCOCC(=O)NCCCC[C@H](NC(=O)CCCCCCCCCCCCCCCCCCC(=O)O)C(=O)O)CCNC(=O)CSC[C@@H](C(=O)NCC(=O)NCC(=O)N2CCC[C@H]2C(=O)N[C@@H](CO)C(=O)N[C@@H](CO)C(=O)NCC(=O)N[C@@H](C)C(=O)N2CCC[C@H]2C(=O)N2CCC[C@H]2C(=O)N2CCC[C@H]2C(=O)N[C@@H](CO)C(N)=O)NC(=O)[C@H](CC(C)C)NC(=O)[C@H](CC(C)C)NC(=O)[C@H](Cc2ccc(O)cc2)NC(=O)[C@H](CCC(=O)O)NC1=O` [TG22] (H-Y[dS]QGTFTSDYSI[αMeL]LDKK(Ac)AQ[Aib]CFIEYLLCGGPSSGAPPPS-NH2; linker 21-28 via X1), the results for the 50% effective concentration (EC50) on GLP-1R, at GIPR and on GCGR were 665 pM, 18.3 pM and 205 pM, respectively.

Consider `CC[C@H](C)[C@@H]1NC(=O)[C@H](Cc2ccccc2)NC(=O)[C@@H](NC(=O)C(C)(C)NC(=O)[C@H](CCC(N)=O)NC(=O)[C@H](C)NC(=O)[C@H](CCCNC(=N)N)NC(=O)[C@H](CCCCN)NC(=O)[C@H](CC(=O)O)NC(=O)[C@H](CC(C)C)NC(=O)[C@](C)(CC(C)C)NC(=O)[C@@H](NC(=O)[C@H](CO)NC(=O)[C@H](Cc2ccc(O)cc2)NC(=O)[C@H](CC(=O)O)NC(=O)[C@H](CO)NC(=O)[C@@H](NC(=O)[C@H](Cc2ccccc2)NC(=O)[C@@H](NC(=O)CNC(=O)[C@H](CCC(N)=O)NC(=O)C(C)(C)NC(=O)[C@@H](N)Cc2ccc(O)cc2)[C@@H](C)O)[C@@H](C)O)[C@@H](C)CC)CSCC(=O)NCCN(C(=O)CCC(=O)NCCOCCOCC(=O)NCCOCCOCC(=O)NCCCC[C@H](NC(=O)CCCCCCCCCCCCCCCCCCC(=O)O)C(=O)O)CCNC(=O)CSC[C@@H](C(=O)NCC(=O)NCC(=O)N2CCC[C@H]2C(=O)N[C@@H](CO)C(=O)N[C@@H](CO)C(=O)NCC(=O)N[C@@H](C)C(=O)N2CCC[C@H]2C(=O)N2CCC[C@H]2C(=O)N2CCC[C@H]2C(=O)N[C@@H](CO)C(N)=O)NC(=O)[C@H](CC(C)C)NC(=O)[C@H](CC(C)C)NC(=O)[C@H](Cc2ccc(O)cc2)NC(=O)[C@H](CCC(=O)O)NC1=O` [TG35], for which the EC50 at GLP-1R was determined as 40.1 pM; on GIPR, 15.5 pM; on GCGR, 273 pM.

As for `CC[C@H](C)[C@@H]1NC(=O)[C@H](Cc2ccccc2)NC(=O)[C@@H](NC(=O)[C@H](CCC(N)=O)NC(=O)[C@H](CCC(N)=O)NC(=O)[C@H](C)NC(=O)[C@H](CCCCNC(C)=O)NC(=O)[C@H](CCCCN)NC(=O)[C@H](CC(=O)O)NC(=O)[C@H](CC(C)C)NC(=O)[C@](C)(CC(C)C)NC(=O)[C@@H](NC(=O)[C@H](CO)NC(=O)[C@H](Cc2ccc(O)cc2)NC(=O)[C@H](CC(=O)O)NC(=O)[C@H](CO)NC(=O)[C@@H](NC(=O)[C@H](Cc2ccccc2)NC(=O)[C@@H](NC(=O)CNC(=O)[C@H](CCC(N)=O)NC(=O)C(C)(C)NC(=O)[C@@H](N)Cc2ccc(O)cc2)[C@@H](C)O)[C@@H](C)O)[C@@H](C)CC)CSCC(=O)NCCN(C(=O)CCC(=O)NCCOCCOCC(=O)NCCOCCOCC(=O)NCCCC[C@H](NC(=O)CCCCCCCCCCCCCCCCCCC(=O)O)C(=O)O)CCNC(=O)CSC[C@@H](C(=O)NCC(=O)NCC(=O)N2CCC[C@H]2C(=O)N[C@@H](CO)C(=O)N[C@@H](CO)C(=O)NCC(=O)N[C@@H](C)C(=O)N2CCC[C@H]2C(=O)N2CCC[C@H]2C(=O)N2CCC[C@H]2C(=O)N[C@@H](CO)C(N)=O)NC(=O)[C@H](CC(C)C)NC(=O)[C@H](CC(C)C)NC(=O)[C@H](Cc2ccc(O)cc2)NC(=O)[C@H](CCC(=O)O)NC1=O` [TG33] (H-Y[Aib]QGTFTSDYSI[αMeL]LDKK(Ac)AQQCFIEYLLCGGPSSGAPPPS-NH2; linker 21-28 via X1), the half-maximal effective concentration (EC50) is 23.7 pM at GLP-1R, 7.6 pM on GIPR and 96.8 pM at GCGR.

For the compound `CC[C@H](C)[C@@H]1NC(=O)[C@H](Cc2ccccc2)NC(=O)[C@@H](NC(=O)C(C)(C)NC(=O)[C@H](CCC(N)=O)NC(=O)[C@H](C)NC(=O)[C@H](CCCCNC(C)=O)NC(=O)[C@H](CCCCN)NC(=O)[C@H](CC(=O)O)NC(=O)[C@H](CC(C)C)NC(=O)[C@](C)(CC)NC(=O)[C@@H](NC(=O)[C@H](CO)NC(=O)[C@H](Cc2ccc(O)cc2)NC(=O)[C@H](CC(=O)O)NC(=O)[C@H](CO)NC(=O)[C@@H](NC(=O)[C@H](Cc2ccccc2F)NC(=O)[C@@H](NC(=O)CNC(=O)[C@H](Cc2c[nH]cn2)NC(=O)C(C)(C)NC(=O)[C@@H](N)Cc2c[nH]cn2)[C@@H](C)O)[C@@H](C)O)[C@@H](C)CC)CSCC(=O)NCCN(C(=O)CCC(=O)NCCOCCOCC(=O)NCCOCCOCC(=O)NCCCC[C@H](NC(=O)CCCCCCCCCCCCCCCCCCC(=O)O)C(=O)O)CCNC(=O)CSC[C@@H](C(=O)NCC(=O)NCC(=O)N2CCC[C@H]2C(=O)N[C@@H](CO)C(=O)N[C@@H](CO)C(=O)NCC(=O)N[C@@H](C)C(=O)N2CCC[C@H]2C(=O)N2CCC[C@H]2C(=O)N2CCC[C@H]2C(=O)N[C@@H](CO)C(N)=O)NC(=O)[C@H](CC(C)C)NC(=O)[C@H](CC(C)C)NC(=O)[C@H](Cc2ccc(O)cc2)NC(=O)[C@H](CCC(=O)O)NC1=O` [TG66] (H-H[Aib]HGT[Phe(2-F)]TSDYSI[Iva]LDKK(Ac)AQ[Aib]CFIEYLLCGGPSSGAPPPS-NH2; linker 21-28 via X1), the 50% effective concentration (EC50) is 435 pM on GLP-1R, 34.7 pM on GIPR and 201 pM on GCGR.

Consider `CC[C@H](C)[C@@H]1NC(=O)[C@H](Cc2ccccc2)NC(=O)[C@@H](NC(=O)C(C)(C)NC(=O)[C@H](CCC(N)=O)NC(=O)[C@H](C)NC(=O)[C@H](CCCCNC(C)=O)NC(=O)[C@H](CCCCN)NC(=O)[C@H](CC(=O)O)NC(=O)[C@H](CC(C)C)NC(=O)[C@](C)(CC(C)C)NC(=O)[C@@H](NC(=O)[C@H](CO)NC(=O)[C@H](Cc2ccc(O)cc2)NC(=O)[C@H](CC(=O)O)NC(=O)[C@H](CO)NC(=O)[C@@H](NC(=O)[C@H](Cc2ccccc2)NC(=O)[C@@H](NC(=O)CNC(=O)[C@H](CCNC(C)=O)NC(=O)C(C)(C)NC(=O)[C@@H](N)Cc2ccc(O)cc2)[C@@H](C)O)[C@@H](C)O)[C@@H](C)CC)CSCC(=O)NCCN(C(=O)CCC(=O)NCCOCCOCC(=O)NCCOCCOCC(=O)NCCCC[C@H](NC(=O)CCCCCCCCCCCCCCCCCCC(=O)O)C(=O)O)CCNC(=O)CSC[C@@H](C(=O)NCC(=O)NCC(=O)N2CCC[C@H]2C(=O)N[C@@H](CO)C(=O)N[C@@H](CO)C(=O)NCC(=O)N[C@@H](C)C(=O)N2CCC[C@H]2C(=O)N2CCC[C@H]2C(=O)N2CCC[C@H]2C(=O)N[C@@H](CO)C(N)=O)NC(=O)[C@H](CC(C)C)NC(=O)[C@H](CC(C)C)NC(=O)[C@H](Cc2ccc(O)cc2)NC(=O)[C@H](CCC(=O)O)NC1=O` [TG41] (H-Y[Aib][Dab](Ac)GTFTSDYSI[αMeL]LDKK(Ac)AQ[Aib]CFIEYLLCGGPSSGAPPPS-NH2; linker 21-28 via X1), for which the figures for the 50% effective concentration (EC50) on GLP-1R, on GIPR and on GCGR were 282 pM, 19.6 pM and 76.3 pM, respectively.

For orientation: EC50 means the concentration at which the effect is half-maximal.
